Source: ChEMBL document CHEMBL5465560, “Selectivity Literature for EUbOPEN Chemogenomic Library” (2024)

How the values were obtained:
[1] = target: Tyrosine-protein kinase JAK1 (Homo sapiens, UniProt P23458); experiment: Selectivity interaction (KinomeScan (DiscoverX)) EUB0000666a JAK1; settings: at 10 µM
[2] = target: T1, Serine/threonine-protein kinase Nek9 (Homo sapiens) (UniProt Q8TD19); experiment: Selectivity interaction (SelectScreen profiling (Invitrogen)) EUB0000607a NEK9; settings: at 2 µM
T1 sequence (whole entry): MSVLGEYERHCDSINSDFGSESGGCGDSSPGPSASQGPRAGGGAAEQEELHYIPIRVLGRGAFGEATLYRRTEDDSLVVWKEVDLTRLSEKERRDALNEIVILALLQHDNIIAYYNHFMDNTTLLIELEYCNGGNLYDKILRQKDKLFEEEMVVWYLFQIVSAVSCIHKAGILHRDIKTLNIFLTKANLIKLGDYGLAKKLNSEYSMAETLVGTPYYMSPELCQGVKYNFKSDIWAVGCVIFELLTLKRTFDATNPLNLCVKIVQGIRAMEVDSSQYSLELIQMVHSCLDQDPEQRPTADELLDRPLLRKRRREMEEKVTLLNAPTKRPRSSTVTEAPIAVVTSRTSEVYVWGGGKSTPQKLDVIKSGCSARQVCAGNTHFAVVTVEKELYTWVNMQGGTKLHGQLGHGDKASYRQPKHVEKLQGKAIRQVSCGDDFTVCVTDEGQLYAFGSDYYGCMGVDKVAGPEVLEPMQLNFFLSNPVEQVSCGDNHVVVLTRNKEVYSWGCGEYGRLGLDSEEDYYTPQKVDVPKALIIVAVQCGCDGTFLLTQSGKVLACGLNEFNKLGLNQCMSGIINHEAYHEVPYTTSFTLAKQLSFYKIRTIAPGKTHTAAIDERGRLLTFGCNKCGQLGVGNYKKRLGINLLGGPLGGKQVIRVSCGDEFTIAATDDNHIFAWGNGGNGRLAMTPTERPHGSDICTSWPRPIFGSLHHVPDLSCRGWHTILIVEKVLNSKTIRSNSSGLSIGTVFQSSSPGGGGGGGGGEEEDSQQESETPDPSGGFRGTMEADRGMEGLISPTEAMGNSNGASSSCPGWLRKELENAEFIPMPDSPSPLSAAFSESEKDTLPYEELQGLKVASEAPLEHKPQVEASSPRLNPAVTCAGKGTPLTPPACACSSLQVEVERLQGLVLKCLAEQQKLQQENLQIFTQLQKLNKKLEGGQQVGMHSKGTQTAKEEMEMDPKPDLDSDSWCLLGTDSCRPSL

[3] = target: Serine/threonine-protein kinase B-raf (Homo sapiens) (UniProt P15056); experiment: (§1) Selectivity interaction (ProQinase) EUB0000171b BRAF
Chain of Serine/threonine-protein kinase B-raf (Homo sapiens) (P15056 whole entry): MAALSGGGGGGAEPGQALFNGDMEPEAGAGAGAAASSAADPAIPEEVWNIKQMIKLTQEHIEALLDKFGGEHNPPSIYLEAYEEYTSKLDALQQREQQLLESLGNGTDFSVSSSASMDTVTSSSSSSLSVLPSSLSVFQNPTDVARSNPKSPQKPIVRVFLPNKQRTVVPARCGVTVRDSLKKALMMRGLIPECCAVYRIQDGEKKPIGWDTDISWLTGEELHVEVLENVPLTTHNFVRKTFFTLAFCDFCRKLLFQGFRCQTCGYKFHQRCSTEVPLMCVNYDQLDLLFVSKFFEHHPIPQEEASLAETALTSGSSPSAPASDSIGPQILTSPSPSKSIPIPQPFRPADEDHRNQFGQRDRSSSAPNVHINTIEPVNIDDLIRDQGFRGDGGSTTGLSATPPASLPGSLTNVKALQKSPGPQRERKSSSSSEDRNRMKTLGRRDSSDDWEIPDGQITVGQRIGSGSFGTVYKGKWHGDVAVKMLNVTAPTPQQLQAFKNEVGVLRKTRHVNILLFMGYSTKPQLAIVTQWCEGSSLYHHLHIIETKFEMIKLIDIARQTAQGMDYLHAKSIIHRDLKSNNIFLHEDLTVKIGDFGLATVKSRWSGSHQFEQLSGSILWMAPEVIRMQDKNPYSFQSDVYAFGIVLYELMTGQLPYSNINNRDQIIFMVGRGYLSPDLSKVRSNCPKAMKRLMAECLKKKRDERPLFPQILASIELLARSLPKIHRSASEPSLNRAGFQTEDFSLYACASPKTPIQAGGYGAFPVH

[4] = test system: Serine/threonine-protein kinase B-raf (Homo sapiens), P15056 [V600E]; experiment: as §1
Chain of Serine/threonine-protein kinase B-raf (Homo sapiens), P15056 [V600E] (P15056 whole entry V600E): as the sequence (P15056 whole entry) above, with V600E counted along it

[5] = target: STE20/SPS1-related proline-alanine-rich protein kinase (Homo sapiens) (UniProt Q9UEW8); experiment: Selectivity interaction (KinomeScan (DiscoverX)) EUB0000695a STK39; settings: at 100 nM
[6] = target: Tyrosine-protein kinase Lck (Homo sapiens, UniProt P06239); experiment: Selectivity interaction (Millipore kinase profiler) EUB0000124b LCK; settings: at 10 µM
[7] = target: Protein kinase C beta type (Homo sapiens, UniProt P05771); experiment: Selectivity interaction (Millipore kinase profiler) EUB0000124b PRKCB; settings: at 10 µM
Chain of Protein kinase C beta type (P05771 2-671 limits assumed): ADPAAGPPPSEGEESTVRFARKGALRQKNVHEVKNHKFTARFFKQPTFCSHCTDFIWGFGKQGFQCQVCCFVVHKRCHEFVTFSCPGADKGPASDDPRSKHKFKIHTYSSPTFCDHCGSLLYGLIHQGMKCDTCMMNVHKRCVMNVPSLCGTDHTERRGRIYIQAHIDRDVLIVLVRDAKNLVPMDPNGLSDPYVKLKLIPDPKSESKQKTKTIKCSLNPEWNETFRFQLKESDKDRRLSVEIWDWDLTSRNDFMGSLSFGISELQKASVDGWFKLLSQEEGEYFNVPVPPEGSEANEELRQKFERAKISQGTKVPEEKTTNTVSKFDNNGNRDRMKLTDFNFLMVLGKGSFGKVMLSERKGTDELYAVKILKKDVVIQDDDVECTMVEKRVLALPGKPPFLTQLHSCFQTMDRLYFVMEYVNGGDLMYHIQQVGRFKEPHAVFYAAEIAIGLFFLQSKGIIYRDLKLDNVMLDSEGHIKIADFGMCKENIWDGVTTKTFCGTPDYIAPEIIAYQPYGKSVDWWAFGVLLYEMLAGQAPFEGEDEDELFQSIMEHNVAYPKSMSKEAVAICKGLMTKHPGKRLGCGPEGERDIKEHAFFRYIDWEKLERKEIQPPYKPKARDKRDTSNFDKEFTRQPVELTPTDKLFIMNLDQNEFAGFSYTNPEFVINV

[8] = target: Ribosomal protein S6 kinase alpha-4 (Homo sapiens) (UniProt O75676); experiment: Selectivity interaction (KinomeScan (DiscoverX)) EUB0000045b RPS6KA4; settings: at 10 µM
Chain of Ribosomal protein S6 kinase alpha-4 (Homo sapiens) (O75676 whole entry, looked up): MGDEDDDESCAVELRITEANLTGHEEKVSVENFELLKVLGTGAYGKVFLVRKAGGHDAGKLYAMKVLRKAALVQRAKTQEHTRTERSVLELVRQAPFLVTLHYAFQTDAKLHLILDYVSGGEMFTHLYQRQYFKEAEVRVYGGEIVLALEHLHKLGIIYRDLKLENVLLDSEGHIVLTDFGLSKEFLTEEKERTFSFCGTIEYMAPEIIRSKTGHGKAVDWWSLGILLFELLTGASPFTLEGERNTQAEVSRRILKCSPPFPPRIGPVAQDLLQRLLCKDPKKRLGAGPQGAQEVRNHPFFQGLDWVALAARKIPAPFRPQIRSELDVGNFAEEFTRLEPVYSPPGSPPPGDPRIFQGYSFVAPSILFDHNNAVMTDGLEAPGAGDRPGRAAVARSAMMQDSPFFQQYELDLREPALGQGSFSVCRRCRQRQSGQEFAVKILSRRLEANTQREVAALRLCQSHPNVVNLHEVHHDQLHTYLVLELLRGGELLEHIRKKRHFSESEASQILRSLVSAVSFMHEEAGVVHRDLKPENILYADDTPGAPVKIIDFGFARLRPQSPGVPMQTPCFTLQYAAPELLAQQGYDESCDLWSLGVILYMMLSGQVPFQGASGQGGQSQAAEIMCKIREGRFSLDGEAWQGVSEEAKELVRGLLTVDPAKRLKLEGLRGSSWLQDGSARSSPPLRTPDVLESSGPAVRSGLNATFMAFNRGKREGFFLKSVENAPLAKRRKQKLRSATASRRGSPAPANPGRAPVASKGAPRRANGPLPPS

[9] = test system: Receptor-type tyrosine-protein kinase FLT3 (Homo sapiens), P36888 [UNDEFINED MUTATION]; experiment: Selectivity interaction (KinomeScan (DiscoverX)) EUB0001079a FLT3; settings: at 1 µM
Chain of Receptor-type tyrosine-protein kinase FLT3 (Homo sapiens), P36888 [UNDEFINED MUTATION] (P36888 whole entry, looked up, change not shown): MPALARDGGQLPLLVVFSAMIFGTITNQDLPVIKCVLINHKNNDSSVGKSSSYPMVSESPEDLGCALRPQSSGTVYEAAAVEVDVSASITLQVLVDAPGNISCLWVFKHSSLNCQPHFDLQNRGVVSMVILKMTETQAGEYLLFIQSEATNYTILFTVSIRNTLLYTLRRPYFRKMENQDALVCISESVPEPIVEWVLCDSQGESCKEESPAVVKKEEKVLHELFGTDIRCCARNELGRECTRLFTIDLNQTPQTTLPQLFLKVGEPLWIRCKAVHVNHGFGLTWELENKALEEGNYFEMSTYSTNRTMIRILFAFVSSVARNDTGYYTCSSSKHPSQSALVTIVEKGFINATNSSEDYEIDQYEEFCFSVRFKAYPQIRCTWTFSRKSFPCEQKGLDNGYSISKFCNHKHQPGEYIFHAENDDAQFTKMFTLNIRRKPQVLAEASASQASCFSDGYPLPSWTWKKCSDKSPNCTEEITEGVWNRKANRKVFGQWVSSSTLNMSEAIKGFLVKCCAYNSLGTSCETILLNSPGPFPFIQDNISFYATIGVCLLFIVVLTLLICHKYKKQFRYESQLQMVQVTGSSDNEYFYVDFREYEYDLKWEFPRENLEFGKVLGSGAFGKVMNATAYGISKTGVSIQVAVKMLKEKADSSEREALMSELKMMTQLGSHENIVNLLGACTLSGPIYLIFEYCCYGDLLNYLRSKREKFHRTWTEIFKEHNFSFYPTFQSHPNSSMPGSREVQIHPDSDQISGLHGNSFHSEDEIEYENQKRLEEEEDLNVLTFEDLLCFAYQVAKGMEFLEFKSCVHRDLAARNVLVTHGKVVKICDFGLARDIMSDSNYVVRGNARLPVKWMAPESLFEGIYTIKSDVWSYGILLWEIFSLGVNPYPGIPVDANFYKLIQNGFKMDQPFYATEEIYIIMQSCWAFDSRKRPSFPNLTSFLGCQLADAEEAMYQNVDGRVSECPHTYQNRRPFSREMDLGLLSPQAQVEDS

[10] = target: Mitogen-activated protein kinase 1 (Homo sapiens, UniProt P28482); experiment: Selectivity interaction (Kinase panel (KiNativ target engagement assay in Jurkat cells)) EUB0001635a MAPK1; type: cell-based; settings: Selectivity number of off-targets 0.0, Selectivity number of targets 233.0, Source Knowledge https://www.sciencedirect.com/science/article/pii/S2451945619300674?via%3Dihub, at 1 µM
Chain of Mitogen-activated protein kinase 1 (P28482 whole entry): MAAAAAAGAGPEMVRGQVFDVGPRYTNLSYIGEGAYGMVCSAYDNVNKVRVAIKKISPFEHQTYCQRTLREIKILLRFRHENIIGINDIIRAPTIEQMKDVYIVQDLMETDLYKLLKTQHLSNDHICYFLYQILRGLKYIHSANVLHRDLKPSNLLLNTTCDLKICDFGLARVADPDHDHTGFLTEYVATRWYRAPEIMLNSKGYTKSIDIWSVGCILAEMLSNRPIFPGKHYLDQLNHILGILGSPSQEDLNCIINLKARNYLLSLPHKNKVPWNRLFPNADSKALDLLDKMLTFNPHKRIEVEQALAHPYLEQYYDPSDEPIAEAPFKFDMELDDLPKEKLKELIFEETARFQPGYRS

[11] = target: Cyclin-dependent kinase 17 (Homo sapiens) (UniProt Q00537); experiment: Selectivity interaction (KinomeScan (DiscoverX)) EUB0000092b CDK17; settings: at 10 µM
Chain of Cyclin-dependent kinase 17 (Homo sapiens) (Q00537 whole entry, looked up): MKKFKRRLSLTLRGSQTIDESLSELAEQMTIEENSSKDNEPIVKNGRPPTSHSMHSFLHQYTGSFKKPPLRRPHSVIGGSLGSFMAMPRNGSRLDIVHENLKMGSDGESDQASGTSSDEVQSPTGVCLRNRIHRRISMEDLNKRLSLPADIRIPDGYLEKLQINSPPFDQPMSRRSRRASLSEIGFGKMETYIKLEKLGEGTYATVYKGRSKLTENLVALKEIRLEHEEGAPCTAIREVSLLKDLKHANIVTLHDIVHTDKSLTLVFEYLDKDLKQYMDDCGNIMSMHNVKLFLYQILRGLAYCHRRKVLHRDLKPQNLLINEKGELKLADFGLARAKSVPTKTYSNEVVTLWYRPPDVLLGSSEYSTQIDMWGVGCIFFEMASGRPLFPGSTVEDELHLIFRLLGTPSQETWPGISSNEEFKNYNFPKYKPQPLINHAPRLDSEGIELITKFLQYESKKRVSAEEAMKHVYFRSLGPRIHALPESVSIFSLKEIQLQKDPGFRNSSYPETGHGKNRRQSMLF

[12] = target: T2, Serine/threonine-protein kinase D3 (Homo sapiens) (UniProt O94806); experiment: Selectivity interaction (KinomeScan (DiscoverX)) EUB0000618a PRKD3; settings: at 10 µM
T2 sequence (whole entry): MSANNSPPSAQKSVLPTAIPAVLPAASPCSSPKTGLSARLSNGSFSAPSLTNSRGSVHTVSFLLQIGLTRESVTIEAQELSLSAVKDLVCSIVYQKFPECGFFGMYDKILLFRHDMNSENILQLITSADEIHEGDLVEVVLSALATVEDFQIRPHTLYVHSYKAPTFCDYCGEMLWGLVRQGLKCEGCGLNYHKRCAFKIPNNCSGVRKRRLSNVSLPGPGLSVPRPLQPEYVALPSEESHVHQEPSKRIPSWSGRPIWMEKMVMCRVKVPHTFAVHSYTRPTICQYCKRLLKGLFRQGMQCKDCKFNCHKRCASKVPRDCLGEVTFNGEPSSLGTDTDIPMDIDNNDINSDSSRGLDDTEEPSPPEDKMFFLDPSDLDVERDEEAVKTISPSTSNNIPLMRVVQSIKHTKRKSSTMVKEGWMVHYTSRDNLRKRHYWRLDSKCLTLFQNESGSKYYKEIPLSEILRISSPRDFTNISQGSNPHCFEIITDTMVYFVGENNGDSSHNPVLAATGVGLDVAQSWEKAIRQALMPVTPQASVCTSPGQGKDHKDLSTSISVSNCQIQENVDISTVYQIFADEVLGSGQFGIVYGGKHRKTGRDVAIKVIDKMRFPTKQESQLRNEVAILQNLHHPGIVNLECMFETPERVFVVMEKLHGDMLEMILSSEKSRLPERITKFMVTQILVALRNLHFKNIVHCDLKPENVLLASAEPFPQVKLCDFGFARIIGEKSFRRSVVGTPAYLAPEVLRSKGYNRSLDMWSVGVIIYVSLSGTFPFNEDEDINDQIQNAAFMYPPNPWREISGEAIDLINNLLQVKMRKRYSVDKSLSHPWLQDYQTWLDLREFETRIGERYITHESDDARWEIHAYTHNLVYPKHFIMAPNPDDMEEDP

[13] = target: Ribosomal protein S6 kinase beta-2 (Homo sapiens) (UniProt Q9UBS0); experiment: Selectivity interaction (ActivX KiNativ screen (ex vivo kinase selectivity in human PBMCs)) EUB0001619a RPS6KB2; type: cell-based; settings: PBMC, at 1 µM
Chain of Ribosomal protein S6 kinase beta-2 (Homo sapiens) (Q9UBS0 whole entry): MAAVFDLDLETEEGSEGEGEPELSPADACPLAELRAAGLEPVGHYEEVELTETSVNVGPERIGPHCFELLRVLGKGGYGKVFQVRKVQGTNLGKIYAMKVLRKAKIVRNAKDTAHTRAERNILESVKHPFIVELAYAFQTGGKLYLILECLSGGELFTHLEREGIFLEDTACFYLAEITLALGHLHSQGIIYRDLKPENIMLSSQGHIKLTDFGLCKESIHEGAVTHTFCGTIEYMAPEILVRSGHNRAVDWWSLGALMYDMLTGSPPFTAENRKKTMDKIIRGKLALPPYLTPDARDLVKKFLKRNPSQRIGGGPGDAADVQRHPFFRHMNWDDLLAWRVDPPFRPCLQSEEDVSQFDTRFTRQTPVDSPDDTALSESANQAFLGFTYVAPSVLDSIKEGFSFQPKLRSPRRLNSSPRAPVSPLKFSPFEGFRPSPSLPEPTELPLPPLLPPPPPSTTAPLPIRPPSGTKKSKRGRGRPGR

**Q.** `O=C(NOC[C@H](O)CO)c1ccc(F)c(F)c1Nc1ccc(I)cc1F` was tested. Which % of control [1] did it give?
**A.** The % of control was 78%.

**Q.** Which % of inhibition [2] does the source give for `CNC(=O)Nc1ccc(-c2nc(N3CC4CCC(C3)O4)c3cnn(C4CCC5(CC4)OCCO5)c3n2)cc1` here?
**A.** The % of inhibition was -2%.

**Q.** `C=CC(=O)Nc1cccc(C(=O)Nc2ccc(Nc3cc(-c4[nH]c(SC)nc4C)ccn3)cc2)c1` was tested. Which % of control ([3]; at 1 µM) did it give?
**A.** The % of control was 96%.

**Q.** What about the % of control ([3]; at 5 µM) of the same compound?
**A.** Its % of control is 82%.

**Q.** And the % of control ([4]; at 1 µM)?
**A.** The % of control was 110%.

**Q.** And the % of control ([4]; at 5 µM)?
**A.** The % of control was 113%.

**Q.** Which % of control [5] does the source give for `Cc1cc(F)c(C(=O)Nc2cccc(-c3nncn3C(C)C)n2)cc1-n1cnc(C2CC2)c1` here?
**A.** Its % of control is 79%.

**Q.** With `CC(=O)Nc1cccc(-n2c(=O)n(C3CC3)c(=O)c3c(Nc4ccc(I)cc4F)n(C)c(=O)c(C)c32)c1` as the compound, how does the % of control [6] read?
**A.** Its % of control is 110%.

**Q.** What about the % of control [7] of the same compound?
**A.** The % of control was 108%.

**Q.** For `C=CC(=O)Nc1cc(-n2c(=O)ccc3cnc4ccc(-c5ccc(NS(C)(=O)=O)cc5)cc4c32)ccc1C`, which % of control [8] is on record?
**A.** Its % of control is 81%.

**Q.** Which % of control [9] does the source give for `Nc1cnc(N2CCc3cc(S(=O)(=O)Nc4c(F)cc(Cl)cc4F)cc(N4CCCC4=O)c32)nc1` [TP-020n] here?
**A.** Its % of control is 96%.

**Q.** Which % of engagement [10] does the source give for `C=CC(=O)Nc1ccc(C(=O)Nc2[nH]nc3c2CN(C(=O)N[C@H](CN(C)C)c2ccccc2)C3(C)C)cc1` here?
**A.** The % of engagement was 0.4%.

**Q.** `CCC(=O)N1CCN(c2ccc(-n3c(=O)ccc4cnc5ccc(-c6cnc7ccccc7c6)cc5c43)cc2C(F)(F)F)CC1` was tested. Which % of control [11] did it give?
**A.** The % of control was 97%.

**Q.** How did the % of control [12] turn out when `O[C@H]1CC[C@H](Nc2ncc3nc(Nc4c(F)cc(F)cc4F)n([C@H]4CCOC4)c3n2)CC1` was run?
**A.** Its % of control is 84%.

**Q.** `N#Cc1cccc(-c2c[nH]c3ncnc(N4CCOCC4)c23)c1` was tested. Which % of inhibition [13] did it give?
**A.** The % of inhibition was 19%.
